# Assay results taken from patent US20040023264A1, “Method for determining the peptide hormone activities or the steroid hormone activities of a material or substance mixture” (priority 2000, published 2004).
# Key:
# glucocorticoid receptor [1] = molecular target: T1, glucocorticoid receptor (Rattus norvegicus, UniProt P06536)
# T1 sequence (P06536 1-795): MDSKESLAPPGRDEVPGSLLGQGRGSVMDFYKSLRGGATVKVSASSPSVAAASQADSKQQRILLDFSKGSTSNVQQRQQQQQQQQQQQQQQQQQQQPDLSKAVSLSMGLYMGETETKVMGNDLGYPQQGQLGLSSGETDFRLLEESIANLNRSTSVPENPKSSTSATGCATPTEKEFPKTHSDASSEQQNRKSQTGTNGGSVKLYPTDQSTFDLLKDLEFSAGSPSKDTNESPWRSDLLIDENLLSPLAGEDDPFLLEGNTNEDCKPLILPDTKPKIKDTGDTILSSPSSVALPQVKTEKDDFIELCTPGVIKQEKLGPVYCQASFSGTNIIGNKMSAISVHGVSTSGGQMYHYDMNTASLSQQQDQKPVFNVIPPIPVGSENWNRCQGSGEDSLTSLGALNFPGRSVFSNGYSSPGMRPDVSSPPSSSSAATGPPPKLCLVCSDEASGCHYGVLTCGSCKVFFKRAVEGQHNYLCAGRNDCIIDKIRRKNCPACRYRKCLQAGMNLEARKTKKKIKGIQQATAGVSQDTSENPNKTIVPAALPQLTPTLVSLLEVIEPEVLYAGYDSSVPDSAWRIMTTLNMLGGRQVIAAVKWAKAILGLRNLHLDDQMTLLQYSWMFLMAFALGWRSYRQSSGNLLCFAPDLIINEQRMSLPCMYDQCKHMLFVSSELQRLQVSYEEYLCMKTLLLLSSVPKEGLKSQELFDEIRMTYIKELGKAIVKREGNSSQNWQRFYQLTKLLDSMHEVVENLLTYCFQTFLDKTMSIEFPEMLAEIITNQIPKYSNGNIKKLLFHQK
# Procedure: These cell lines contain endogenous glucocorticoid receptors. Here, steroid concentration—in this case corticosterone concentration—determines the extent of glucocorticoid activity. […]
# (§1) Thus, the following examples always concern transit ntly cotransfected CC1or MH 3924 cell.
# Determination was carried out as in example 7, however, with MH 3924 cells.
# glucocorticoid receptor [2] = molecular target: T1, glucocorticoid receptor; assay: Glucocorticoid activity bioassay, CC1 cells cotransfected with GRE2-TATA-Luc and glucocorticoid receptor expression plasmid; assay type: cell-based; design: expressed in transfected cells; host or cells: CC1 cells (permanent rat liver cell line), transiently cotransfected with pSTC-rGR and GRE2-TATA-Luc; conditions: for corticosteroid (glucocorticoid) activity of corticosterone:BSA derivatives / glucocorticoid activity (luciferase induction): CC1 cells; for corticosteroid (glucocorticoid) activity of corticosterone:BSA derivatives: each 200 nM, various induction times; for glucocorticoid activity (luciferase induction): different concentrations, induction time 24 h
# Procedure: These cell lines contain endogenous glucocorticoid receptors. Here, steroid concentration—in this case corticosterone concentration—determines the extent of glucocorticoid activity. […] Induction time: 24 h (see also example 12).
# as §1
# glucocorticoid receptor [3] = molecular target: T1, glucocorticoid receptor; conditions: CC1 cells
# androgen receptors (AR) = assay: Androgen induced luciferase activity in transfected human genital skin fibroblasts (GSF); assay type: cell-based; conditions: mibolerone 2 nM, 24 h incubation; three Luc constructs; strength depends on origin of fibroblasts
# Excerpt: FIG. 1: Androgen induced luciferase activity in human genital skin fibroblasts (GSF) in culture transfected with three different luciferase gen constructs of different androgen sensitivity (“Lu ”): PRE2-Tk-Luc, MMTV-Luc, GRE2-TATA-Luc
# The only steroid hormone receptors present in GSF are androgen receptors (AR). Mibolerone, which is used in this experiment, is a synthetic androgen with anabolic effectiveness. […] Obviously, GE2-TATA-Luc is the most sensitive reporter gene construct of the ones used here (for comparison, see also example 10 with a MMTV promotor reporter gene construct as well as FIG. 10).
# androgen receptor = androgen receptor (Homo sapiens, UniProt P10275); conditions: HeLa cells, induction time 24 h
# Sequence of androgen receptor (P10275 whole entry): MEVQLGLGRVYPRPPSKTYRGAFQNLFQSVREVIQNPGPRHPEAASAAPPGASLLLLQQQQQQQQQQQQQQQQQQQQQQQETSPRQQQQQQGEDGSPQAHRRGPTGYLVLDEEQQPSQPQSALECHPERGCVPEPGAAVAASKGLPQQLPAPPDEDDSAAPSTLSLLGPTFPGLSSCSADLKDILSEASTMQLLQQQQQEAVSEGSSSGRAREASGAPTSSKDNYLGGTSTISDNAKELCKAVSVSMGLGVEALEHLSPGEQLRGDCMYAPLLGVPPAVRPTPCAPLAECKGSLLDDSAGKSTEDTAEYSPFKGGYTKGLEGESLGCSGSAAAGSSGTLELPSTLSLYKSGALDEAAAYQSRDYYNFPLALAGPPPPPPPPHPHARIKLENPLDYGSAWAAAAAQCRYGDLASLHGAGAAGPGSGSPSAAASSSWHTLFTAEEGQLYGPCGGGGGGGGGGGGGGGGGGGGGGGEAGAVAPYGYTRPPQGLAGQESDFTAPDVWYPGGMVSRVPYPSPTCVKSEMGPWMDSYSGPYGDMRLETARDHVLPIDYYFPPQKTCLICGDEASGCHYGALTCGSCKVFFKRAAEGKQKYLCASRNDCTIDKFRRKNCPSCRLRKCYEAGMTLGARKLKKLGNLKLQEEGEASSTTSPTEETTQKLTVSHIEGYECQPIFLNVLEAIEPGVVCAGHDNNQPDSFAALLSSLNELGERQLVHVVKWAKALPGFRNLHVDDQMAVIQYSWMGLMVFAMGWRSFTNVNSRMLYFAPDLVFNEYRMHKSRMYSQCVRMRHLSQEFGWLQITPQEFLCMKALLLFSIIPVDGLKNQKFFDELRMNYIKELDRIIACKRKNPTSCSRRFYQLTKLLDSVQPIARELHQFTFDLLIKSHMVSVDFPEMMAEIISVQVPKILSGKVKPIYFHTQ
# Excerpt: Transfection method in this experiment was the DOTAP method (Boehringer, Mannheim, Germany).
# This androgen receptor free cell line was transiently cotransfected with GRE2-TATA-Luc and a recombinant androgen receptor expression plasmid.
molecule,measurement,setting,value
21-hemisuccinat-corticosterone:BSA,concentration at which luciferase induction is easily measurable,"glucocorticoid receptor [1]; MH 3924 cells, short term induction of 10 to 30 min (FIG. 4a)",≤ 50 nM
same,corticosteroid (glucocorticoid) activity of corticosterone:BSA derivatives,glucocorticoid receptor [2],strong
same,luciferase induction by corticosterone derivative bound to BSA (glucocorticoid activity),glucocorticoid receptor [2]; cotransfected CC1 cells,luciferase is induced
"CC#C[C@]1(O)CC[C@H]2[C@@H]3CCC4=CC(=O)CCC4=C3[C@@H](c3ccc(N(C)C)cc3)C[C@@]21C [RU 38486, mifepristone]",blocking of luciferase inducing effect of corticosterone and 21-hemisuccinat-corticosterone:BSA (glucocorticoid antagonism),glucocorticoid receptor [3],extensively blocked
"C[C@]12CCC(=O)C=C1CC[C@@H]1[C@@H]2CC[C@@]2(C)[C@H]1CC[C@]2(O)C(=O)CO [cortexolone, 17α-, 21-dihydroxy-progesterone]",glucocorticoid activity (luciferase induction),glucocorticoid receptor [2],significant glucocorticoid activity
C[C@@H]1CC2=CC(=O)CC[C@@H]2[C@H]2CC[C@@]3(C)[C@@H](CC[C@]3(C)O)[C@@H]21 [Mibolerone],luciferase activity induced by androgen,androgen receptors (AR),luciferase activity of varying strength
3-CMO-corticosterone:BSA [3:BSA],corticosteroid (glucocorticoid) activity of corticosterone:BSA derivatives,glucocorticoid receptor [2],weak
C[C@]12C[C@H](O)[C@H]3[C@@H](CCC4=CC(=O)CC[C@@]43C)[C@@H]1CC[C@@H]2C(=O)CO [corticosterone],response of MH 3924 cells compared with response of CC1 cells,glucocorticoid receptor [1]; as in example 7 (24 h),distinctly more sensitive
same,glucocorticoid activity (luciferase induction),glucocorticoid receptor [2],very active
"C[C@]1(O)CC[C@H]2[C@@H]3CCC4=CC(=O)CCC4=C3C=C[C@@]21C [R1881, methyltrienolone]",concentration at which hormone activity (anabolic potency) can already be detected,androgen receptor,10 pM
